Laboratory results taken from article PMC10269072, “Predicting Optimal Antimalarial Drug Combinations from a Standardized Plasmodium falciparum Humanized Mouse Model” (Antimicrobial Agents and Chemotherapy, 2023).

Columns and labels:
[1] = test system: P. falciparum 3D7^0087/N9; test: PfalcHuMouse model: therapeutic efficacy (parasite clearance, day of recrudescence, cure) in P. falciparum-infected humanized NSG mice; format: in vivo, Plasmodium falciparum; settings: for day after which no recrudescence occurred (DoR): oral monotherapy, historical data, different dose levels and schedules, drugs with curative exposures in the data set; for exposure leading to 95% probability of cure: logistic regression of historical data
Excerpt: To implement the PfalcHuMouse model for analysis of combinations, we first defined the variables of therapeutic response and their interpretation in the context of this analysis. These variables were parasite clearance (PC), parasite recrudescence (PR), and cure (Fig. 2a). […] In our studies, we estimated PC by measuring the ratio of parasitemia in blood at 48-h intervals (pDn/pDn+2, where pD stands for parasitemia and n indicates the day of the assay), which was a simplified alternative of the classical approach and is frequently used in clinical studies. Conversely, PR depends on the number of viable parasites remaining in the body that could proliferate after noneffective treatment and is not systematically used to measure parasite killing in vivo. To test PR validity, we hypothesized that the time point for recrudescent parasitemia to reach the value at the onset of drug treatment (i.e., day of recrudescence [DoR]) correlated with the number of parasites that survived antimalarial treatment ([35]). […] It is important to note that both DoRs, days 0 and 60, represented not quantifiable magnitudes but labels of specific conditions (i.e., therapeutic failure and cure, respectively).
Experimental infections were carried out as previously described ([12]), with minor modifications. Briefly, NSG mice were engrafted with hE by intraperitoneal daily injections of 1-mL hE suspensions until a minimum of 40% chimerism in peripheral blood was achieved (typically10 days of injections). The hE-engrafted mice (HuMice) were infected with 0.3 mL of a suspension of pooled blood collected by aseptic cardiac puncture from CO2-euthanized donor HuMice harboring a parasitemia of 5 to 10% P. falciparum 3D7^0087/N9.
(§1) Before drug administration, each infected mouse was randomly assigned to its corresponding treatment. […] The treatments were administered by oral gavage with 20-gauge straight reusable feeding needles (Fine Science Tools GmbH, Heidelberg, Germany). The volume of administration for the per os (p.o.) route was 10 mL/kg of body weight unless otherwise stated.
The quantification of parasitemia at different time points after the infection was performed by flow cytometry as previously described ([46]). Briefly, 2 μL of blood was taken from the lateral tail vein of HuMice and stained with SYTO-16 (Fisher Scientific), a membrane-permeable nonselective fluorescent nucleic acid dye to detect intraerythrocytic parasites, and TER119-phycoerythrin monoclonal antibody (Miltenyi Biotec, Bergisch Gladbach, Germany) as a marker of murine erythrocytes, exactly as described. The samples were acquired and analyzed in a Attune NxT acoustic focusing flow cytometer (Thermo Fisher Scientific, Waltham, MA). The limit of quantification was set to 0.01%, where a minimum of 100 infected events was considered the minimal statistically significant sample (~10^6 total erythrocytes counted for detection). Parasitemia was expressed as the percentage of parasitized erythrocytes with respect to the total erythrocytes in circulation and/or as the absolute concentration of circulating parasitized erythrocytes. For qualitative assessment of blood samples from infected mice, blood smears stained with 10% (vol/vol) Giemsa in saline buffer (0.015 M NaCl, 0.001 M phosphate buffer [pH 7.0]) were prepared and analyzed as described previously ([56]) in a Zeiss Primo Star 4 microscope (Thermo Fisher Scientific) at a magnification of ×100.
The treated mice that reached the limit of detection by standard flow cytometry (<0.01% from total circulating erythrocytes) after pharmacological treatment were maintained until day 60 of study.

[2] = Concentration of drugs in whole blood of P. falciparum 3D7^0087/N9-infected HuMice after oral dosing (LC-MS/MS, PK analysis); format: in vivo, mice; settings: for AUC(0-t) / Cmax / Tmax / AUC0toTlast: mouse, in vivo; for AUC(0-t): AUC0toTlast
Experimental: as §1
The concentrations of drugs were measured in whole blood of P. falciparum 3D7^0087/N9-infected HuMice since the amount of plasma that could be obtained from each mouse was very low. Samples of peripheral blood (25 μL) were taken at different time points after dosing, mixed with 25 μL of 10.9 mM potassium oxalate and 59.5 mM sodium fluoride in Milli-Q water, and immediately frozen on a thermal block at −80°C. The frozen samples were stored at −80°C until analysis. Blood from P. falciparum 3D7^0087/N9-infected HuMice harboring a parasitemia of ~1.4% was used for preparation of standard curves, calibration, and quality control samples. The drugs were extracted from 10 μL of lysates, obtained by protein precipitation of blood samples, by using standard liquid-liquid extraction methods. The samples were analyzed by liquid chromatography-tandem mass spectrometry (LC-MS/MS) for quantification in Waters Micromass ultrahigh-performance triple quadrupole (UPLC-TQD) (Waters, Manchester, UK) mass spectrometers.
Multivariate linear regression, logistic regression, and descriptive statistics were carried out using GraphPad Prism 9.0 (GraphPad Software, San Diego, CA). The comparison of regression models was executed using the Akaike information criterion ([57]). Probability values of <0.05 were considered significant. Phoenix WinNonlin 8.2 (Certara, St. Louis, MO) was used for PK standard analysis.

[3] = Blood partitioning: distribution of drugs in plasma, erythrocytes and infected erythrocytes of the PfalcHuMouse; format: in vivo, mice; settings: for fraction associated with circulating erythrocytes / fraction found in plasma: mouse, in vivo
Excerpt: Given their physicochemical properties, both ferroquine and piperaquine might accumulate in infected erythrocytes ([41]), so we mined data on the distribution of these drugs in plasma, erythrocytes, and infected erythrocytes of the PfalcHuMouse from previous blood partitioning studies in unrelated drug discovery programs. Approximately 97.5% of both ferroquine and piperaquine was associated with circulating erythrocytes, while only 2.5% was found in plasma. For piperaquine, the accumulation was even higher in erythrocytes of infected individuals (>99%). Moreover, as previously reported ([13]), there was no sequestration of P. falciparum in vascular endothelium of the PfalcHuMouse. Therefore, the contribution of drug accumulated in mature parasites circulating in blood might be relevant, especially in proliferating parasites exposed to noninhibitory concentrations. Consequently, we corrected this effect on drug exposure in blood by dividing the total drug exposure levels in blood by the number of infected erythrocytes in circulation for each animal in the study.

[4] = artefenomel plus piperaquine model, intercept 102.8, n = 40, Tjur's R^2 = 0.91
[5] = ferroquine plus artefenomel model, intercept 17.2, n = 50, Tjur's R^2 = 0.31

For `COc1ccc2nc3cc(Cl)ccc3c(Nc3cc(CN4CCCC4)c(O)c(CN4CCCC4)c3)c2n1` [pyronaridine], the “day after which no recrudescence occurred (DoR)” value [1] was ≤ 35 days.
With `c1cc([C@H]2CC[C@]3(CC2)OO[C@]2(O3)C3CC4CC(C3)CC2C4)ccc1OCCN1CCOCC1` [artefenomel] the AUC(0-t) ([2]; po, 100 mg/kg) was 40900 ng·h/mL, the Cmax ([2]; po, 100 mg/kg) was 2200 ng/mL and the Tmax ([2]; po, 100 mg/kg) was 2 h. For the same molecule, the “coefficient of log10AUC in logistic model of cure log(p/1−p)” value (“coefficient … of cure log(p/1−p)” below) [1, 4] was 16.2, the “coefficient … of cure log(p/1−p)” value [1, 5] was 1.6 and the “pattern of interaction with piperaquine on parasite killing in vivo” value ([1]; graphic analysis of cure, assuming potency of artefenomel in the same order of magnitude as piperaquine) was “synergistic”. For the same molecule, the “mechanistic pattern of interaction with ferroquine” value ([1]; graphic analysis of cure, conditioned by large difference in intrinsic potency) was “additivity” and the “exposure up to which no cures were available in monotherapy” value ([1]; monotherapy, schedules of treatment used in the experimental studies) was “up to 4.7 × 10^−3 nmol/10^6 iE”.
With ferroquine the “fraction associated with circulating erythrocytes” value [3] was “Approximately 97.5%”, the “fraction found in plasma” value [3] was 2.5% and the AUC0toTlast ([2]; 20 mg/kg) was 4708 ng·h/mL. For the same molecule, the “coefficient … of cure log(p/1−p)” value [1, 5] was 5.4 and the “exposure leading to 95% probability of cure” value ([1]; monotherapy) was 0.58 × 10^−3 nmol/10^6 infected erythrocytes (iE).
In the case of `CNC[c-]1cccc1CNc1ccnc2cc(Cl)ccc12.[Fe+2].c1cc[cH-]c1` (stereo not shown) [SSR97213], the “share of the total exposure of ferroquine plus SSR97213” value ([2]; average, main metabolite of ferroquine) is reported as 40%.
In the case of `CCCCN(CCCC)CC(O)c1cc(Cl)cc2c1-c1ccc(Cl)cc1/C2=C/c1ccc(Cl)cc1` (stereo not shown) [lumefantrine], the “day after which no recrudescence occurred (DoR)” value [1] is reported as ≤ 35 days.
With `Clc1ccc2c(N3CCN(CCCN4CCN(c5ccnc6cc(Cl)ccc56)CC4)CC3)ccnc2c1` [piperaquine] the “accumulation in erythrocytes of infected individuals” value ([3]; PfalcHuMouse, infected individuals) was > 99%, the “fraction associated with circulating erythrocytes” value [3] was “Approximately 97.5%” and the “fraction found in plasma” value [3] was 2.5%. For the same molecule, the AUC(0-t) ([2]; po, 5 mg/kg) was 25300 ng·h/mL, the Cmax ([2]; po, 5 mg/kg) was 598 ng/mL and the AUC(0-t) ([2]; po, 10 mg/kg) was 21800 ng·h/mL. The Cmax ([2]; po, 10 mg/kg) was 346 ng/mL, the AUC(0-t) ([2]; po, 25 mg/kg) was 41900 ng·h/mL and the Cmax ([2]; po, 25 mg/kg) was 414 ng/mL. For the same molecule, the Tmax ([2]; po, 25 mg/kg) was 77 h, the AUC0toTlast ([2]; po, 40 mg/kg) was 38866 ng·h/mL and the AUC(0-t) ([2]; po, 40 mg/kg) was 70000 ng·h/mL. It also gave a Cmax ([2]; po, 40 mg/kg) of 1120 ng/mL, an AUC(0-t) ([2]; po, 75 mg/kg) of 355000 ng·h/mL and a Cmax ([2]; po, 75 mg/kg) of 2550 ng/mL. The Tmax ([2]; po, 75 mg/kg) was 109 h, the “coefficient … of cure log(p/1−p)” value [1, 4] was 24.2 and the “exposure leading to 95% probability of cure” value ([1]; monotherapy) was 3.47 × 10^−3 nmol/10^6 infected erythrocytes (iE).
